Measured values reported in ChEMBL document CHEMBL1201862, “PubChem BioAssay data set” (2004).
Active and inactive are the calls of the source.

What was measured:
[1] = target: Mannose-6-phosphate isomerase (Homo sapiens, UniProt P34949); experiment: inhibitors of human PMI, primary screen, biochemical, fluorescence intensity, coupled assay (AID 1209)
CAAX prenyl protease 2 = CAAX prenyl protease 2 (Saccharomyces cerevisiae S288c, UniProt Q03530); assay type: biochemical
[2] = target: Alkaline phosphatase, placental type (Homo sapiens, UniProt P05187); experiment: PLAP enzyme inhibitors, confirmation, biochemical, luminescence (AID 1512); assay type: functional
[3] = target: Glyceraldehyde-3-phosphate dehydrogenase (Homo sapiens, UniProt P04406)
[4] = Shn3 3'UTR reporter inhibitors, dose response, cell-based, Clone20 osteoblasts, firefly luciferase, cherry-picked (AID 624132); assay type: functional;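 note: firefly luciferase luminescence from reporter carrying the Shn3 3'UTR in osteoblasts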
[5] = target: T1, Heat shock factor protein 1 (Mus musculus, UniProt P38532); experiment: HSF1 potentiators in luciferase reporter cells, confirmation, cell-based, NIH3T3, luminescence, dose retest (AID 435004); assay type: functional;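 note: stress induced by proteasome inhibitor MG132 added 30 min after compound; luciferase reporter driven by HSF1 response element in NIH3T3 cells; actives raise luminescence as potentiators of the MG132 stress response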
T1 sequence (P38532 whole entry): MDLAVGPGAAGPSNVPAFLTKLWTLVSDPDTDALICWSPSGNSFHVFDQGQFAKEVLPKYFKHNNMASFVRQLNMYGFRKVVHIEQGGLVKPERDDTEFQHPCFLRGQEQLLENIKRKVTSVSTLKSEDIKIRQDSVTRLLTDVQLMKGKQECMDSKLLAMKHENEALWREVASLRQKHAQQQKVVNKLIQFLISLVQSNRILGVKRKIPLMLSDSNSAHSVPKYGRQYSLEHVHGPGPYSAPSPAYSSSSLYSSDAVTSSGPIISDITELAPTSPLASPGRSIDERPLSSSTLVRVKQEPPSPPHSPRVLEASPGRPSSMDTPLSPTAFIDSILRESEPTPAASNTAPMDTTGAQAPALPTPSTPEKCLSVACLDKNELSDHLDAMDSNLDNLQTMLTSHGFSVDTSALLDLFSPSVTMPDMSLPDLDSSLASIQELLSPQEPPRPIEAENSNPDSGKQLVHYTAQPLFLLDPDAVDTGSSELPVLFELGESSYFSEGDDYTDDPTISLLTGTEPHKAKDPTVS

[6] = target: E3 ubiquitin-protein ligase Mdm2/Protein Mdm4 (Homo sapiens, UniProt O15151+Q00987); experiment: Mdm2-MdmX interaction inhibitors, dose response, luminescence detection (AID 504593); assay type: functional
[7] = HepG2 cell cytotoxicity, dose response, cytotoxicity control for Shn3 inhibitor project, CellTiter-Glo, cherry-picked (AID 624134); assay type: functional, cell-based
[8] = control 3'UTR Renilla luciferase suppression, dose response, counter-screen for Shn3 inhibitor project, cell-based, Clone20-Shn3RL, cherry-picked (AID 624133); assay type: functional
Vero [9] = experiment: cytotoxicity of synthesized analogs in Vero 76, SAR follow-up, cytotoxicity control for West Nile virus antiviral project, Vero 76 cells (AID 2414); assay type: functional; settings: Chlorocebus sabaeus
Vero [10] = experiment: cytotoxicity of synthesized analogs in Vero cells, SAR follow-up, cytotoxicity control for West Nile virus antiviral project, cell-based, set II (AID 2402); assay type: functional; settings: Chlorocebus sabaeus
Vero [11] = experiment: West Nile virus cytopathic effect inhibition, cell-based (AID 2419); assay type: functional; settings: Chlorocebus sabaeus
[12] = A Cell Based Assay for the Identification of Probe candidate Compounds with Anti- Venezuelan Equine Encephalitis virus. [Related pubchem assays: 2409, 2419, 1621, 2238, 2405, 2024, 2065, 2402, 2414, 1635, 1650, 2244 ]; assay type: functional
Vero [13] = experiment: West Nile virus CPE inhibition, SAR follow-up, cell-based, synthesized analogs (AID 2238); assay type: functional; settings: Chlorocebus sabaeus
Vero [14] = experiment: Vero E6 cell cytotoxicity, SAR follow-up, cytotoxicity control for West Nile virus antiviral project, synthesized analogs (AID 2244); assay type: functional; settings: Chlorocebus sabaeus
[15] = target: 1-acylglycerol-3-phosphate O-acyltransferase ABHD5/Perilipin-5 (Homo sapiens, UniProt Q00G26+Q8WTS1); experiment: Luminescence-based biochemical high throughput dose response assay for inhibitors of the interaction of the lipase co-activator protein, abhydrolase domain containing 5 (ABHD5) with perilipin-5 (MLDP; PLIN5) (2K validation set). [Related pubchem assays (depositor defined):AID493035, AID493241]
Perilipin-1/ABHD5 = Perilipin-1/ABHD5 (Homo sapiens, UniProt O60240+Q8WTS1); experiment: Luminescence-based biochemical high throughput dose response assay for inhibitors of the interaction of the lipase co-activator protein, abhydrolase domain containing 5 (ABHD5) with perilipin-1 (PLIN1) (2K validation set). [Related pubchem assays (depositor defined):AID493027, AID493057]
Chain of Perilipin-1/ABHD5 (Q8WTS1 whole entry, the tested form may be a part): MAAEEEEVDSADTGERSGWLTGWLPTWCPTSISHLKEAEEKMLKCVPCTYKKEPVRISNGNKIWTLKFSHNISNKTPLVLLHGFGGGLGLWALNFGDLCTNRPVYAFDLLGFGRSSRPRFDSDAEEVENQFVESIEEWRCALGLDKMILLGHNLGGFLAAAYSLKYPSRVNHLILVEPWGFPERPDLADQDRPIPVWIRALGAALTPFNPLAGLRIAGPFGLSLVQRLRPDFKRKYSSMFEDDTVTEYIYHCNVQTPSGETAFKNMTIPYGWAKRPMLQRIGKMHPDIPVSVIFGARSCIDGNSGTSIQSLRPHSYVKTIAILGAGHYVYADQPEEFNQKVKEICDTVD
Chain of Perilipin-1/ABHD5 (O60240 whole entry, the tested form may be a part): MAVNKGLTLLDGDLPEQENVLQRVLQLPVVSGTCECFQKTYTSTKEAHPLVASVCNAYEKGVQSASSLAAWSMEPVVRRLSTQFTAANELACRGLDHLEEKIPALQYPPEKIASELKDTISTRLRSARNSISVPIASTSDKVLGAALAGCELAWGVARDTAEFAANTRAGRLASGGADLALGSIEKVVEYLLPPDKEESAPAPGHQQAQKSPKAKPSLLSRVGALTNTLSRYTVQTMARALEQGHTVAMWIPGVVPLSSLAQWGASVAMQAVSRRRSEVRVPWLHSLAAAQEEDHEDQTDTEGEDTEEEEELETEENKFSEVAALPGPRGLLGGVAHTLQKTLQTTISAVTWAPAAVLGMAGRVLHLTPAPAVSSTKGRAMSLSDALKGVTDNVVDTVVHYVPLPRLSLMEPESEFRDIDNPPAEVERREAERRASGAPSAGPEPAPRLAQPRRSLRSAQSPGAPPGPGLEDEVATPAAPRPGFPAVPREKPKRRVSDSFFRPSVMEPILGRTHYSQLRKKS

Chain of Alkaline phosphatase, placental type (P05187 whole entry): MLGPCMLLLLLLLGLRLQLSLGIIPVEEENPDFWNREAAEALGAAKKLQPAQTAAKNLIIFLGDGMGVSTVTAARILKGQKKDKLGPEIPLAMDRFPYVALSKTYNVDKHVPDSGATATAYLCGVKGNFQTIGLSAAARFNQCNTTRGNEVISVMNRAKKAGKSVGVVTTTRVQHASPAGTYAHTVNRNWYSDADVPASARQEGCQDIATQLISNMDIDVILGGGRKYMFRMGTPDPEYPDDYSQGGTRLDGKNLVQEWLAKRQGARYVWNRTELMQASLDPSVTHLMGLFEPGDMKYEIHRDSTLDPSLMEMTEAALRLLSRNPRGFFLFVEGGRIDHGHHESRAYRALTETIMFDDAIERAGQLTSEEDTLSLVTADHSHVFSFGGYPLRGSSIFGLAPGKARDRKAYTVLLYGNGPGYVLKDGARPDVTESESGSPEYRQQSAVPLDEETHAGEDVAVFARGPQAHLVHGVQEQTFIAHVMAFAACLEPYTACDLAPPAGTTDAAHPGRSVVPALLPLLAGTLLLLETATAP
Chain of Mannose-6-phosphate isomerase (P34949 whole entry): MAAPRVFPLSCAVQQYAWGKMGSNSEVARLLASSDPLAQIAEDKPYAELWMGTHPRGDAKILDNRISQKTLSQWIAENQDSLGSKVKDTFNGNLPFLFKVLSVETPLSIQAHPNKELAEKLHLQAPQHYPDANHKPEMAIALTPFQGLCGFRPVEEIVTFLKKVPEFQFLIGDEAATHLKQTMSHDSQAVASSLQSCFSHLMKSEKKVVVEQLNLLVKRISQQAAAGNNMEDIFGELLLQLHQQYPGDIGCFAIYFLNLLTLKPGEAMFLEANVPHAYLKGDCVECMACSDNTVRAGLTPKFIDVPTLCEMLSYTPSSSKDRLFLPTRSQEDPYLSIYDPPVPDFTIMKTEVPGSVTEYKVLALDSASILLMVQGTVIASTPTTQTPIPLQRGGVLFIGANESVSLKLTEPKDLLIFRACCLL
Chain of E3 ubiquitin-protein ligase Mdm2/Protein Mdm4 (Q00987 whole entry): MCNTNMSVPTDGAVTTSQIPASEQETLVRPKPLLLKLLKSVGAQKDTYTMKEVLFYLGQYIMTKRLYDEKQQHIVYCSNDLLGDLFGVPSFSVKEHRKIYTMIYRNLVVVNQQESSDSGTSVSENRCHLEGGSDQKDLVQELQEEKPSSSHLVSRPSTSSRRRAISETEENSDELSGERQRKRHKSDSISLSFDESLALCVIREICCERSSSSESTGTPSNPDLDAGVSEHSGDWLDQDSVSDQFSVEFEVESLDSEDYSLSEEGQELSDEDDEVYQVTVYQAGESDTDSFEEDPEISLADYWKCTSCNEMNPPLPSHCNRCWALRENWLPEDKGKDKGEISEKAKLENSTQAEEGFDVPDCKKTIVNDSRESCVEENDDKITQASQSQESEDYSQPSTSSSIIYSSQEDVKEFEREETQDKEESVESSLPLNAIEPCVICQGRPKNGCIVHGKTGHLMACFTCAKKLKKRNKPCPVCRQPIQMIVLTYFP
Chain of E3 ubiquitin-protein ligase Mdm2/Protein Mdm4 (O15151 whole entry): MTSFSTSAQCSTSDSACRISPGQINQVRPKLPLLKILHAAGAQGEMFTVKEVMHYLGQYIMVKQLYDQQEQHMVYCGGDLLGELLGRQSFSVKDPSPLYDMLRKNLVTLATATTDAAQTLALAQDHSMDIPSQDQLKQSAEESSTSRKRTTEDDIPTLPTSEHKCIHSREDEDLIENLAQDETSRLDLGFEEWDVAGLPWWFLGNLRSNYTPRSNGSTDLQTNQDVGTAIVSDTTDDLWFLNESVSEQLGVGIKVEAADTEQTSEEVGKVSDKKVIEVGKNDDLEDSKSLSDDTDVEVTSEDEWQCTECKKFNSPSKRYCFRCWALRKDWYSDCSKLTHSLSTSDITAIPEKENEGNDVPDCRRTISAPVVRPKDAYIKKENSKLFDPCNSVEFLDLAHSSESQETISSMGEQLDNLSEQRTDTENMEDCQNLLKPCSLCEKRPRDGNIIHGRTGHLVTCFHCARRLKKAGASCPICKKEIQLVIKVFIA
Chain of 1-acylglycerol-3-phosphate O-acyltransferase ABHD5/Perilipin-5 (Q00G26 whole entry, the tested form may be a part): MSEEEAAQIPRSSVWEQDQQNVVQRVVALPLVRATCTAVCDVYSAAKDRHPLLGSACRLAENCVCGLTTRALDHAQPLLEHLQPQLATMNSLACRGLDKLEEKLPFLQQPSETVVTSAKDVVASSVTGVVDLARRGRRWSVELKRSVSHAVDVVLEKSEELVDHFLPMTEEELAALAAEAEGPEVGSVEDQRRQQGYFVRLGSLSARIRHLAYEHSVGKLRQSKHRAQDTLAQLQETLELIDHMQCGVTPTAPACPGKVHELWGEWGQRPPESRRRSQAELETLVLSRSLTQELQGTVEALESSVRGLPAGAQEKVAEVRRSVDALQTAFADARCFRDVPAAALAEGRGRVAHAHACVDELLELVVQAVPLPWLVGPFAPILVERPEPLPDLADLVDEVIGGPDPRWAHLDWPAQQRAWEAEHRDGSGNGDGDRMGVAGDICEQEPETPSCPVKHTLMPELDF
Chain of 1-acylglycerol-3-phosphate O-acyltransferase ABHD5/Perilipin-5 (Q8WTS1 whole entry, the tested form may be a part): as the sequence (Q8WTS1 whole entry, the tested form may be a part) above
Chain of Glyceraldehyde-3-phosphate dehydrogenase (P04406 whole entry): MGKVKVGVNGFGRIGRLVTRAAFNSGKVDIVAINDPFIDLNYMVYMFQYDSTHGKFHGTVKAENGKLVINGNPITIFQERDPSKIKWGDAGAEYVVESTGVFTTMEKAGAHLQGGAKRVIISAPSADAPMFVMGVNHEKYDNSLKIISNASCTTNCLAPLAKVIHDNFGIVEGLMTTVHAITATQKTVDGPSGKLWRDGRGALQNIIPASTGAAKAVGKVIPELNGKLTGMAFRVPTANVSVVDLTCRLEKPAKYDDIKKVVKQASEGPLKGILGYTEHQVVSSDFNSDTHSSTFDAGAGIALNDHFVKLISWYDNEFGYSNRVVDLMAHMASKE
Chain of CAAX prenyl protease 2 (Q03530 whole entry): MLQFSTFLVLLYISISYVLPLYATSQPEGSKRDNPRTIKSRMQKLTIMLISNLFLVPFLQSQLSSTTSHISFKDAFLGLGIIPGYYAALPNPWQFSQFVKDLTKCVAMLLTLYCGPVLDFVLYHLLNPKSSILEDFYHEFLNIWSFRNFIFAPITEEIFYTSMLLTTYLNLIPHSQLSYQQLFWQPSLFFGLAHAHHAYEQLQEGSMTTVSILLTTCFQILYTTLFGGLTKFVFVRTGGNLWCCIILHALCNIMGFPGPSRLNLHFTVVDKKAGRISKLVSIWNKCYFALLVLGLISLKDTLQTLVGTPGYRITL

In the case of c1ccc(Nc2cccc(Nc3ccccc3)n2)cc1, the IC50 [1] is reported as > 50 µM (not active) and the AC50 (CAAX prenyl protease 2) is reported as 13.3 µM (active).

With O=C(NCCO)c1cc(-c2ccc(Cl)cc2Cl)n[nH]1 the IC50 [2] was 21.1 µM (active) and the IC50 [3] was > 100 µM (not active).

For CCOC(=O)/C=C/C(=O)OCC(=O)NC(c1ccccc1)c1ccccc1, the AC50 [4] was 5.14 µM (active), the EC50 [5] was 13.4 µM (active) and the IC50 [6] was 3.28 µM (active). For the same molecule, the AC50 [7] was > 70 µM (inactive) and the AC50 [8] was 22 µM (active).

For COc1ccc(-c2csc(N(CCCN(C)C)C(=O)c3ccccc3Cl)n2)cc1, the CC50 (Vero [9]) was 20.2 µM (active), the CC50 (Vero [10]) was 9.54 µM (active) and the IC50 (Vero [11]) was > 25 µM (active). The IC50 [12] was 5.37 µM (active), the IC50 (Vero [13]) was 29.5 µM (active) and the CC50 (Vero [14]) was 28.4 µM (active).

In the case of CCCCC/C=C\C[C@H](O)/C=C/c1cccc(C[C@H](O)CCCCO)n1, the IC50 [15] is reported as 5.28 µM (active) and the IC50 (Perilipin-1/ABHD5) is reported as 5.05 µM (active).
